The nature of the data set: dissolution properties of the solid form. It counts as physicochemical. The settings on record: conditions not given.

The record followed here is US20110014291A1, “Novel Polymorphs of Bosentan” (ACTAVIS GROUP PTC EHF, priority 2007, published 2011).

In the case of `COc1ccccc1Oc1c(NS(=O)(=O)c2ccc(C(C)(C)C)cc2)nc(-c2ncccn2)nc1OCCO` [amorphous form, bosentan], the dissolution properties result was “advantageous dissolution properties”.
